Test results reported in US20130178534A1, “N-Nonanoylvanillylamine as an agent for reducing the appetite, as an agent for imparting a feeling of fullness and as a mood enhancer, and corresponding substance mixtures, orally consumable products and methods” (Symrise AG, priority 2012, published 2013).

What was measured:
SH-SY5Y cells [1] = assay: Release of dopamine by SH-SY5Y cells (Example 1); type: cell-based, Human; details: for T/C [%] release of dopamine: 3 minutes, normalised to control
Protocol: (§1) Human neuroblastoma cells (SH-SY5Y, ATCC number CRL-2266) are used as the cell model. Cultivation takes place at 37° C. and 5% CO2 content with a mixture consisting of equal parts of Eagle's Minimum Essential Medium (MEM) and F12 medium (in each case with 10% FBS and 1% penicillin/streptomycin). For measurement of the release of dopamine and serotonin, the cells are harvested with trypsin and, after a vitality test by trypan blue staining, are sown in a defined cell number in 35 mm cell culture dishes.
Method for measuring the release of dopamine:
After stimulation of 1.25*10^6 human neuroblastoma cells (SH-SY5Y) for 3 minutes with 350 μl of Krebs-Ringer HEPES buffer, pH 5, with or without addition of N-nonanoylvanillylamine (wherein in the case of addition of N-nonanoylvanillylamine, concentrations of 0.1 μM, 1 μM and 10 μM are established in the Krebs-Ringer HEPES buffer), the supernatant is acidified with 1 N HCl and the dopamine content is determined by means of an enzyme-based detection method (dopamine ELISA, DLD Diagnostica, Hamburg, Germany). The cells are lysed with a buffer containing sodium lauryl sarcosinate, and the DNA content is determined by means of a NanoQuant plate (Tecan, Ménnendorf, Switzerland) for normalisation of the dopamine release. In the case of an ethanol control (EtOH control), no N-nonanoylvanillylamine is added to the Krebs-Ringer HEPES buffer, but ethanol is added to the buffer so that a 0.1% ethanolic Krebs-Ringer HEPES buffer solution is obtained. In the case of the positive control, acetylcholine is used instead of the N-nonanoylvanillylamine, a concentration of 100 μM acetylcholine being established in the Krebs-Ringer HEPES buffer.

SH-SY5Y cells [2] = assay: Release of serotonin by SH-SY5Y cells (Example 3); type: cell-based, Human; details: for T/C [%] release of serotonin: normalised to control
Protocol: as §1
After stimulation of 1.25*10^6 human neuroblastoma cells (SH-SY5Y) for 3 minutes with 300 μl of Krebs-Ringer HEPES buffer, 0.1% ascorbic acid, pH 6.2, with or without addition of N-nonanoylvanillylamine (wherein in the case of addition of N-nonanoylvanillylamine, concentrations of 0.01 μM, 0.1 μM, 1 μM and 10 μM are established in the Krebs-Ringer HEPES buffer), the serotonin content is determined by means of an enzyme-based detection method (serotonin ELISA sensitive, […], Hamburg, Germany). The cells are lysed with a buffer containing sodium lauryl sarcosinate, and the DNA content is determined by means of a NanoQuant plate (Tecan, Ménnendorf, Switzerland) for normalisation of the serotonin release.

[3] = Kollmannsberger 2007; cited from earlier work
SH-SY5Y cells [4] = assay: Release of serotonin by SH-SY5Y cells with N-nonanoylvanillylamine and a TRPV1 inhibitor (Example 4); type: cell-based, Human
Protocol: as §1
After stimulation of 1.25*10^6 human neuroblastoma cells (SH-SY5Y) for 3 minutes with 300 μl of Krebs-Ringer HEPES buffer (0.1% ascorbic acid, pH 6.2), with or without addition of N-nonanoylvanillylamine (so that a concentration of 1 μM N-nonanoylvanillylamine is established in the Krebs-Ringer HEPES buffer) in combination with different application-relevant amounts of the selective TRPV1 inhibitor trans-4-tert-butylcyclohexanol, the serotonin content is determined by means of an enzyme-based detection method (serotonin ELISA sensitive, DLD Diagnostica, Hamburg, Germany). The cells are lysed with a buffer containing sodium lauryl sarcosinate, and the DNA content is determined by means of a NanoQuant plate in a plate reader (Tecan, Ménnendorf, Switzerland) for normalisation of the serotonin release.

SH-SY5Y cells [5] = assay: Release of dopamine by SH-SY5Y cells with N-nonanoylvanillylamine and a TRPV1 inhibitor (Example 2); type: cell-based, Human
Protocol: as §1
After stimulation of 1.25*10^6 human neuroblastoma cells (SH-SY5Y) for 3 minutes with 350 μl of Krebs-Ringer HEPES buffer, pH 5, with or without addition of 1 μM N-nonanolyvanillylamine (wherein in the case of addition of N-nonanoylvanillylamine, a concentration of 1 μM is established in the Krebs-Ringer HEPES buffer) in combination with different application-relevant amounts of the selective TRPV1 inhibitor trans-4-tert-butylcyclohexanol (so that concentrations of 25, 50 and 80 μM of trans-4-tert-butylcyclo-hexanol are established in the Krebs-Ringer HEPES buffer), the supernatant is acidified with 1 N HCl and the dopamine content is determined by means of an enzyme-based detection method (dopamine ELISA, DLD Diagnostica, Hamburg, Germany). The cells are lysed with a buffer containing sodium lauryl sarcosinate, and the DNA content is determined by means of a NanoQuant plate (Tecan, Ménnendorf, Switzerland) for normalisation of the dopamine release. For comparison purposes, the tests were repeated without the addition of N-nonanoylvanillylamine.

[6] = cited from earlier work
[7] = N-nonanoylvanillylamine 1 μM + 25 μM trans-4-tert-butylcyclohexanol
[8] = N-nonanoylvanillylamine 1 μM + 50 μM trans-4-tert-butylcyclohexanol
[9] = N-nonanoylvanillylamine 1 μM + 80 μM trans-4-tert-butylcyclohexanol
[10] = N-nonanoylvanillylamine 1 μM alone
[11] = 25 μM alone, without N-nonanoylvanillylamine
[12] = 50 μM alone, without N-nonanoylvanillylamine
[13] = 80 μM alone, without N-nonanoylvanillylamine

For `CC(=O)OCC[N+](C)(C)C` [Acetylcholine, acetylcholine, reference compound], the “T/C [%] release of dopamine” value (SH-SY5Y cells [1]; 100 μM (positive control)) was 139.84%.

In the case of `[Cl-].[K+]` [KCl, potassium chloride, reference compound], the “T/C [%] release of serotonin” value (SH-SY5Y cells [2]; 50 mM (positive control)) is reported as 153.48%.

In the case of `CCCCCCCCC(=O)NCc1ccc(O)c(OC)c1` [N-Nonanoylvanillylamine], the detection threshold [3] is given as 0.107 mg/kg, the stimulant threshold [3] is given as 0.054 mg/kg and the “T/C [%] release of serotonin” value (SH-SY5Y cells [2]; 0.01 μM, 3 minutes) is given as 191.35%. For the same compound, the “amount of serotonin released by SH-SY5Y cells” value (SH-SY5Y cells [2]; 0.1 μM and above, p<0.005) was “increases highly significantly”, the “T/C [%] release of serotonin” value (SH-SY5Y cells [2]; 0.1 μM, 3 minutes) was 226.44% and the “T/C [%] release of serotonin” value (SH-SY5Y cells [2]; 1 μM, 3 minutes) was 272.12%. For the same compound, the “T/C [%] release of serotonin” value (SH-SY5Y cells [2]; 10 μM, 3 minutes) was 185.65%, the “stimulating the release of serotonin in neurons, maximum, compared with the respective control” value (SH-SY5Y cells [2]; concentration range 0.01 μM to 10 μM (0.003 mg/kg to 3 mg/kg)) was “about 270%” and the “influence of addition of TRPV1 inhibitor trans-4-tert-butylcyclohexanol on the serotonin release” value (SH-SY5Y cells [4]; 1 μM N-nonanoylvanillylamine) was “not significantly influenced”. For the same compound, the “T/C [%] release of serotonin” value (SH-SY5Y cells [4]; [7]) was 154.86%, the “T/C [%] release of serotonin” value (SH-SY5Y cells [4]; [8]) was 128.74% and the “T/C [%] release of serotonin” value (SH-SY5Y cells [4]; [9]) was 140.81%. For the same compound, the “T/C [%] release of serotonin” value (SH-SY5Y cells [4]; N-nonanoylvanillylamine 1 μM + 200 μM trans-4-tert-butylcyclohexanol) was 181.93%, the “T/C [%] release of serotonin” value (SH-SY5Y cells [4]; [10]) was 151.75% and the “increase in the amount of dopamine released” value (SH-SY5Y cells [5]; 1 μM) was “five-fold increase”. For the same compound, the “influence of simultaneous stimulation with TRPV1 inhibitor trans-4-tert-butylcyclohexanol on the dopamine release” value (SH-SY5Y cells [5]; 1 μM N-nonanoylvanillylamine, inhibitor 25, 50 and 80 μM) was “not significantly influenced”, the “T/C [%] release of dopamine” value (SH-SY5Y cells [5]; [7]) was 433.55% and the “T/C [%] release of dopamine” value (SH-SY5Y cells [5]; [8]) was 456.80%. For the same compound, the “T/C [%] release of dopamine” value (SH-SY5Y cells [5]; [9]) was 422.48%, the “T/C [%] release of dopamine” value (SH-SY5Y cells [5]; [10]) was 501.20% and the “T/C [%] release of dopamine” value (SH-SY5Y cells [1]; 0.1 μM) was 697.84%. The “increase in the amount of dopamine released by SH-SY5Y cells” value (SH-SY5Y cells [1]; 100 nM) was “seven-fold increase”, the “T/C [%] release of dopamine” value (SH-SY5Y cells [1]; 1 μM) was 1350.94% and the “T/C [%] release of dopamine” value (SH-SY5Y cells [1]; 10 μM) was 1774.98%. For the same compound, the “stimulating the release of dopamine, compared with the respective control” value (SH-SY5Y cells [1]; approximately 0.03 mg/kg (0.1 μM)) was “about 700%” and the EFSA safety rating ([6]; rated in FGE.86) was “no safety concern”.

In the case of `COc1cc(CNC(=O)CCCC/C=C/C(C)C)ccc1O` [capsaicin, reference compound], the rating for genotoxicity ([6]; EFSA / Scientific Committee on Food opinion 2002) is given as “negatively rated as having genotoxic potential”.

With `CC(C)(C)[C@H]1CC[C@H](O)CC1` [trans-4-tert-butylcyclohexanol, reference compound] the “T/C [%] release of serotonin” value (SH-SY5Y cells [4]; [11]) was 91.07%, the “T/C [%] release of serotonin” value (SH-SY5Y cells [4]; [12]) was 101.39% and the “T/C [%] release of serotonin” value (SH-SY5Y cells [4]; [13]) was 84.129%. The “T/C [%] release of serotonin” value (SH-SY5Y cells [4]; 200 μM alone, without N-nonanoylvanillylamine) was 110.99%, the “T/C [%] release of dopamine” value (SH-SY5Y cells [5]; [11]) was 84.47% and the “T/C [%] release of dopamine” value (SH-SY5Y cells [5]; [12]) was 38.19%. For the same compound, the “T/C [%] release of dopamine” value (SH-SY5Y cells [5]; [13]) was 63.53%.
